Test system: crypt cells of the colon of HFA mice
Assay: DNA chip showing specific responses to human intestinal normal bacterial flora, colistin-treated HFA mice
Settings: 500 μg/Ml in drinking water three weeks
[1] = colon crypt cells, then halted one week

Excerpt: The colon is collected and the gene expression of crypt cells obtained from the colon is compared with the control group (HFA mice).
In other words, the material or the food is orally administered to HFA mice, which are autopsied along with control HFA mice not having been administered. The crypt cells of the colon are collected to separate RNA. Next, the separated RNA is amplified and Cy3 fluorescence material is labelled on the genes of HFA mice and Cy5 fluorescence material is labelled on the genes of the administered group to react with the gene chip which is a product of the present invention to get the difference of expressions of the 90 genes.
RNA is collected and amplified from the crypt cells of the colon to manufacture a DNA chip, which is reacted with RNA of HFA mice being the control group. The degree of expressing genes and the change of composition of intestinal normal bacterial flora of the colon and the activity of the enzymes produced by the human intestinal bacterial flora such as glucuomidase, glucosidase, nitrate reductase and azoreductase are investigated and used as an index showing the disruption of the human intestinal normal bacterial flora.

colistin sulfate was tested. Which “Disruption of the human intestinal normal bacterial flora, recovery after stop of administration” value (one week after stop) did it give?
Its value is “not recovered in one week after the administration of colistin is stopped”.

What about the “Number of genes in total showing a difference by more than 1.5 times in comparison with the control group” value (then halted one week) of the same substance?
The value was 38 genes.

What about the “Number of the 90 genes with the same tendency of increase and decrease as observed when the flora is disturbed” value (then halted one week) of the same substance?
Its value is 25 genes.

What about the “1110037F02Rik gene expression HFA-Coli/HFA” value [1] of the same substance?
Its value is 13.33.

And the “1110037F02Rik gene expression, HFA-Coli” value [1]?
Its value is 133.2.

What about the “1110038M16Rik gene expression HFA-Coli/HFA” value [1] of the same substance?
The value was 1.355.

And the “1110038M16Rik gene expression, HFA-Coli” value [1]?
The value was 195.8.

And the “1700012H17Rik gene expression HFA-Coli/HFA” value [1]?
The value was 0.969.

And the “1700012H17Rik gene expression, HFA-Coli” value [1]?
Its value is 594.0.

What about the “2610529I12Rik gene expression HFA-Coli/HFA” value [1] of the same substance?
The value was 1.049.

And the “2610529I12Rik gene expression, HFA-Coli” value [1]?
The value was 1108.

And the “4732481h14Rik gene expression HFA-Coli/HFA” value [1]?
The value was 0.750.

What about the “4732481h14Rik gene expression, HFA-Coli” value [1] of the same substance?
The value was 209.2.

What about the “4930455F23Rik gene expression HFA-Coli/HFA” value [1] of the same substance?
Its value is 0.851.

What about the “4930455F23Rik gene expression, HFA-Coli” value [1] of the same substance?
Its value is 634.5.

What about the “5031404N19 gene expression HFA-Coli/HFA” value [1] of the same substance?
The value was 0.956.

And the “5031404N19 gene expression, HFA-Coli” value [1]?
Its value is 444.2.

What about the “5430437F03Rik gene expression HFA-Coli/HFA” value [1] of the same substance?
The value was 1.826.

And the “5430437F03Rik gene expression, HFA-Coli” value [1]?
Its value is 485.8.

What about the “6330590F17Rik gene expression HFA-Coli/HFA” value [1] of the same substance?
Its value is 1.341.

And the “6330590F17Rik gene expression, HFA-Coli” value [1]?
The value was 84.50.

And the “9830148O20Rik gene expression HFA-Coli/HFA” value [1]?
Its value is 1.400.

And the “9830148O20Rik gene expression, HFA-Coli” value [1]?
Its value is 815.0.

What about the “Alas1 gene expression HFA-Coli/HFA” value [1] of the same substance?
The value was 1.857.

What about the “Alas1 gene expression, HFA-Coli” value [1] of the same substance?
The value was 577.0.

And the “Aldh6a1 gene expression HFA-Coli/HFA” value [1]?
Its value is 0.971.

And the “Aldh6a1 gene expression, HFA-Coli” value [1]?
The value was 286.5.

What about the “Au043625 gene expression HFA-Coli/HFA” value [1] of the same substance?
The value was 1.167.

And the “Au043625 gene expression, HFA-Coli” value [1]?
The value was 336.5.

And the “Bnip3l gene expression HFA-Coli/HFA” value [1]?
The value was 1.753.

And the “Bnip3l gene expression, HFA-Coli” value [1]?
The value was 729.5.

And the “C130039O16 gene expression HFA-Coli/HFA” value [1]?
Its value is 1.160.

And the “C130039O16 gene expression, HFA-Coli” value [1]?
Its value is 680.0.

What about the “CPd gene expression HFA-Coli/HFA” value [1] of the same substance?
Its value is 0.848.

What about the “CPd gene expression, HFA-Coli” value [1] of the same substance?
The value was 587.8.

What about the “Cacnb3 gene expression HFA-Coli/HFA” value [1] of the same substance?
Its value is 0.649.

What about the “Cacnb3 gene expression, HFA-Coli” value [1] of the same substance?
Its value is 661.2.

And the “Cav gene expression HFA-Coli/HFA” value [1]?
Its value is 1.029.

What about the “Cav gene expression, HFA-Coli” value [1] of the same substance?
The value was 206.0.

And the “Ccnd2 gene expression HFA-Coli/HFA” value [1]?
Its value is 0.839.

What about the “Ccnd2 gene expression, HFA-Coli” value [1] of the same substance?
The value was 315.5.

And the “Cdc45l gene expression HFA-Coli/HFA” value [1]?
The value was 1.652.

What about the “Cdc45l gene expression, HFA-Coli” value [1] of the same substance?
The value was 100.8.

And the “Cited1 gene expression HFA-Coli/HFA” value [1]?
Its value is 1.222.

And the “Cited1 gene expression, HFA-Coli” value [1]?
Its value is 289.0.

What about the “Ckap2 gene expression HFA-Coli/HFA” value [1] of the same substance?
Its value is 1.661.

What about the “Ckap2 gene expression, HFA-Coli” value [1] of the same substance?
Its value is 548.0.

And the “Cldn8 gene expression HFA-Coli/HFA” value [1]?
Its value is 1.195.

What about the “Cldn8 gene expression, HFA-Coli” value [1] of the same substance?
The value was 406.5.

And the “Col3a1 gene expression HFA-Coli/HFA” value [1]?
Its value is 2.136.

What about the “Col3a1 gene expression, HFA-Coli” value [1] of the same substance?
Its value is 441.0.

What about the “Cotl11 gene expression HFA-Coli/HFA” value [1] of the same substance?
The value was 1.883.

And the “Cotl11 gene expression, HFA-Coli” value [1]?
Its value is 1227.

And the “Crem gene expression HFA-Coli/HFA” value [1]?
Its value is 0.890.

And the “Crem gene expression, HFA-Coli” value [1]?
Its value is 355.8.

And the “Crsp7 gene expression HFA-Coli/HFA” value [1]?
Its value is 2.045.

And the “Crsp7 gene expression, HFA-Coli” value [1]?
Its value is 1218.

And the “Cul4b gene expression HFA-Coli/HFA” value [1]?
The value was 1.715.

And the “Cul4b gene expression, HFA-Coli” value [1]?
Its value is 91.75.

And the “D230019K24Rik gene expression HFA-Coli/HFA” value [1]?
Its value is 2.598.

What about the “D230019K24Rik gene expression, HFA-Coli” value [1] of the same substance?
The value was 142.2.

And the “Daf1 gene expression HFA-Coli/HFA” value [1]?
Its value is 2.085.

And the “Daf1 gene expression, HFA-Coli” value [1]?
The value was 419.0.

What about the “Dap3 gene expression HFA-Coli/HFA” value [1] of the same substance?
Its value is 1.274.

And the “Dap3 gene expression, HFA-Coli” value [1]?
The value was 634.5.

What about the “Dcamkl1 gene expression HFA-Coli/HFA” value [1] of the same substance?
The value was 0.679.

And the “Dcamkl1 gene expression, HFA-Coli” value [1]?
The value was 615.2.

And the “Ddx1 gene expression HFA-Coli/HFA” value [1]?
The value was 1.094.

What about the “Ddx1 gene expression, HFA-Coli” value [1] of the same substance?
Its value is 370.0.

What about the “Eif2ak3 gene expression HFA-Coli/HFA” value [1] of the same substance?
Its value is 1.274.

And the “Eif2ak3 gene expression, HFA-Coli” value [1]?
The value was 685.0.

And the “Epc1 gene expression HFA-Coli/HFA” value [1]?
Its value is 1.452.

And the “Epc1 gene expression, HFA-Coli” value [1]?
Its value is 228.8.

What about the “Fads3 gene expression HFA-Coli/HFA” value [1] of the same substance?
The value was 1.422.

What about the “Fads3 gene expression, HFA-Coli” value [1] of the same substance?
The value was 409.2.

What about the “Fn3k gene expression HFA-Coli/HFA” value [1] of the same substance?
Its value is 0.785.

What about the “Fn3k gene expression, HFA-Coli” value [1] of the same substance?
The value was 415.5.

And the “Gmnn gene expression HFA-Coli/HFA” value [1]?
Its value is 0.997.

And the “Gmnn gene expression, HFA-Coli” value [1]?
Its value is 673.8.

What about the “Gstm2 gene expression HFA-Coli/HFA” value [1] of the same substance?
The value was 0.944.

What about the “Gstm2 gene expression, HFA-Coli” value [1] of the same substance?
The value was 164.8.

What about the “Guca1a gene expression HFA-Coli/HFA” value [1] of the same substance?
The value was 1.553.

What about the “Guca1a gene expression, HFA-Coli” value [1] of the same substance?
The value was 417.0.

And the “Hdac5 gene expression HFA-Coli/HFA” value [1]?
Its value is 0.949.

What about the “Hdac5 gene expression, HFA-Coli” value [1] of the same substance?
The value was 473.8.

And the “Hsd17b2 gene expression HFA-Coli/HFA” value [1]?
Its value is 1.453.

And the “Hsd17b2 gene expression, HFA-Coli” value [1]?
Its value is 1737.

And the “Igj gene expression HFA-Coli/HFA” value [1]?
The value was 0.888.

And the “Igj gene expression, HFA-Coli” value [1]?
Its value is 210.5.

What about the “Il16 gene expression HFA-Coli/HFA” value [1] of the same substance?
The value was 1.470.

What about the “Il16 gene expression, HFA-Coli” value [1] of the same substance?
The value was 568.0.
